Data published in patent publication US20250230193A1, “CYCLIC COMPOUND HAVING SELECTIVE KRAS INHIBITORY EFFECT ON HRAS AND NRAS” (CHUGAI SEIYAKU KABUSHIKI KAISHA, priority 2022, published 2025).
Where a SMILES comes first, the peptide text is derived from it. Bridges are numbered along the chain shown (N, C = ends). [ ]: non-standard residue; d: D form. The star is where a group is joined. hPhe(3-Cl-4-CF3) = N[C@@H](CCc1ccc(C(F)(F)F)c(Cl)c1)C(=O)O; NPrPhe(4-CF3) = CCCN[C@@H](Cc1ccc(C(F)(F)F)cc1)C(=O)O; NMeGly(cPent) = CN[C@H](C(=O)O)C1CCCC1; Hyp = O=C(O)[C@@H]1C[C@@H](O)CN1; NMeL = CN[C@@H](CC(C)C)C(=O)O; Morpholide = C1CN(*)CCO1; Ac5c = NC1(C(=O)O)CCCC1; Ac4c = NC1(C(=O)O)CCC1; NEtG = CCNCC(=O)O; Sar = CNCC(=O)O

Assays:
[1] = target: GDP-bound NRAS wild-type protein (Homo sapiens, UniProt P01111); experiment: Binding to NRAS by surface plasmon resonance (SPR), Single Cycle Kinetics; conditions: for NRAS/KRAS (ratio of KD value with respect to GDP-bound NRAS wild-type protein to KD value with respect to KRAS): class symbols
[2] = target: GDP-bound HRAS wild-type protein (Homo sapiens, UniProt P01112); experiment: Binding to HRAS by surface plasmon resonance (SPR), Single Cycle Kinetics; conditions: for HRAS/KRAS (ratio of KD value with respect to GDP-bound HRAS wild-type protein to KD value with respect to KRAS): class symbols
[3] = KD ratio, GDP-bound NRAS wild-type vs GDP-bound KRAS wild-type, SPR
[4] = KD ratio, GDP-bound HRAS wild-type vs GDP-bound KRAS wild-type, SPR

Sequence of GDP-bound HRAS wild-type protein (P01112 whole entry): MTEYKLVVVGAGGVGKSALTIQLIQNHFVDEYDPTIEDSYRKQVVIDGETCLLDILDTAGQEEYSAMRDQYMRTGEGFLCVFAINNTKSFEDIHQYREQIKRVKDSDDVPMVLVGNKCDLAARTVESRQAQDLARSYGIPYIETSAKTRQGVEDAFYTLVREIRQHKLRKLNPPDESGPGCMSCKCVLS
Sequence of GDP-bound NRAS wild-type protein (P01111 whole entry): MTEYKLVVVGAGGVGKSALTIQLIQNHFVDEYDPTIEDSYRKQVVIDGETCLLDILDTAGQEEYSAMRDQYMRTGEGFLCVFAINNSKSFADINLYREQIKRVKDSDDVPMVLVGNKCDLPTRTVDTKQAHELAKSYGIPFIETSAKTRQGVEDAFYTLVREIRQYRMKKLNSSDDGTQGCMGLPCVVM

Row | Compound | NRAS/KRAS (ratio of KD value with respect to GDP-bound NRAS wild-type protein to KD value with respect to KRAS) [1] | HRAS/KRAS (ratio of KD value with respect to GDP-bound HRAS wild-type protein to KD value with respect to KRAS) [2] | NRAS/KRAS (ratio of KD for GDP-bound NRAS wild-type to KD for KRAS) ([1]; SPR) | HRAS/KRAS (ratio of KD for GDP-bound HRAS wild-type to KD for KRAS) ([2]; SPR) | other results
1 | CC[C@H](C)[C@@H]1NC(=O)[C@H](CC(C)C)N(C)C(=O)C[C@@H](C(=O)N2CCOCC2)N(C)C(=O)[C@H](C2CCCC2)N(C)C(=O)C2(CCC2)NC(=O)[C@@H]2C[C@@H](OC)CN2C(=O)[C@H](CCc2cc(F)c(C(F)(F)F)c(F)c2)NC(=O)CN(C)C(=O)[C@H](Cc2ccc(C(F)(F)F)cc2)N2CCCCC[C@@H](C2=O)N(C)C(=O)CN(C)C1=O [PP1016] | – | – | – | – | NRAS/KRAS (ratio of KD value with respect to NRAS to KD value with respect to KRAS) [1, 3]: A (a compound having 10 or more and less than 20 is denoted as A); HRAS/KRAS (ratio of KD value with respect to HRAS to KD value with respect to KRAS) [2, 4]: B (a compound having 3 or more and less than 10 is denoted as B)
2 | CCO[C@@H]1C[C@H]2C(=O)NC3(CC(C)(C)C3)C(=O)N(C)[C@@H](C3CCCC3)C(=O)N(C)[C@H](C(=O)N(C)C)CC(=O)N(C)[C@@H](C3CCC3)C(=O)N[C@@H]([C@@H](C)CC)C(=O)N(C)CC(=O)N(C)[C@H]3C/C=C\CCN(C3=O)[C@@H](Cc3ccc(C(F)(F)F)cc3)C(=O)N(C)CC(=O)N[C@@H](CCc3ccc(C(F)(F)F)c(OC)c3)C(=O)N2C1 [PP1987] | – | – | – | – | NRAS/KRAS (ratio of KD value for NRAS to KD value for KRAS) [1, 3]: A (a compound having 10 or more and less than 20 is denoted as A); HRAS/KRAS (ratio of KD value for HRAS to KD value for KRAS) [2, 4]: A (a compound having 10 or more and less than 20 is denoted as A)
3 | CCC(CC)[C@H]1C(=O)N(C)[C@H](C(=O)N(C)C)CC(=O)N(C)[C@@H](COC)C(=O)N[C@@H]([C@@H](C)CC)C(=O)N(C2CC2)CC(=O)N(C)[C@H]2C/C=C\CCN(C2=O)[C@@H](CC2CCC(F)(F)CC2)C(=O)N(C)CC(=O)N[C@@H](CCc2ccc(Cl)c(Cl)c2)C(=O)N2C[C@H](OC(C)C)C[C@H]2C(=O)NC2(CC(C)(C)C2)C(=O)N1C [PP2525] | AA (a compound having 20 or more is denoted as AA) | A (a compound having 10 or more and less than 20 is denoted as A) | – | – | –
4 | CCCN1C(=O)CN(C)C(=O)CNC(=O)[C@H]([C@@H](C)CC)NC(=O)[C@H](CC(C)C)N(C)C(=O)C[C@@H](C(=O)N2CCOCC2)NC(=O)[C@H](C2CCCC2)N(C)C(=O)C2(CCC2)NC(=O)[C@@H]2CCCN2C(=O)[C@H](CCc2ccc(C(F)(F)F)c(Cl)c2)NC(=O)CN(C)C(=O)[C@@H]1Cc1ccc(C(F)(F)F)cc1 [PP0326] ([NMeL]IG[Sar][NPrPhe(4-CF3)][Sar][hPhe(3-Cl-4-CF3)]P[Ac4c][NMeGly(cPent)]D-Morpholide; lactam N-11) | – | – | B (a compound having 3 or more and less than 10 is denoted as B) | B (a compound having 3 or more and less than 10 is denoted as B) | –
5 | CCCN1C(=O)CN(C)C(=O)CN(CC)C(=O)[C@H]([C@@H](C)CC)NC(=O)[C@H](CC(C)C)N(C)C(=O)C[C@@H](C(=O)N2CCOCC2)NC(=O)[C@H](C2CCCC2)N(C)C(=O)C2(CCCC2)NC(=O)[C@@H]2C[C@@H](OCC)CN2C(=O)[C@H](CCc2ccc(C(F)(F)F)c(Cl)c2)NC(=O)CN(C)C(=O)[C@@H]1Cc1ccc(C(F)(F)F)cc1 [PP0335] ([NMeL]I[NEtG][Sar][NPrPhe(4-CF3)][Sar][hPhe(3-Cl-4-CF3)][Hyp](Et)[Ac5c][NMeGly(cPent)]D-Morpholide; lactam N-11) | – | – | B (a compound having 3 or more and less than 10 is denoted as B) | C (A compound having a KD ratio of 0.1 or more and less than 3 is denoted as C) | –
6 | CCCOC[C@H]1C(=O)N[C@@H]([C@@H](C)CC)C(=O)N(C)CC(=O)N(C)[C@H]2C/C=C\CCN(C2=O)[C@@H](Cc2ccc(C)cc2)C(=O)N(C)CC(=O)N[C@@H](CCc2cc(F)c(C(F)(F)F)c(F)c2)C(=O)N2C[C@H](OCC)C[C@H]2C(=O)NC2(CC(C)(C)C2)C(=O)N(C)[C@@H](CC2CCC2)C(=O)N(C)[C@H](C(=O)N(C)C)CC(=O)N1C [PP2752] | A (a compound having 10 or more and less than 20 is denoted as A) | A (a compound having 10 or more and less than 20 is denoted as A) | – | – | –
